The record followed here is patent US11406699B2 (priority 2019, dated 2022).

The subject of series [1] is VEEV TC-83. Type of series: cell-based, Venezuelan equine encephalitis virus.
Series [2] concerns CHIKV. Type of series: cell-based, chikungunya virus.
Series [3] concerns EEEV FL93-939 TaV-nLuc. Put plainly: microbe, parasite or virus in culture. In kind it is cell-based. The conditions noted are these: Eastern equine encephalitis virus, Vero, 24 h.
Series [4] deals with VEEV TC-83. Put plainly: microbe, parasite or virus in culture. The conditions noted are these: Venezuelan equine encephalitis virus, Vero, read-out: effective concentration 50% (EC50). Type of series: cell-based.
Series [5] has as its system VEEV ZPC738 TaV-nLuc. Briefly: microbe, parasite or virus in culture. In kind it is cell-based. The conditions noted are these: Venezuelan equine encephalitis virus, Vero, 24 h.
Series [6] deals with SINV. Type of series: cell-based, Sindbis virus.
Series [7] is described as follows: in vitro. Particulars: African green monkey.

Molecules are shown by their SMILES. pEC50: −log10 of the molar value. Several values for one entry are separate records, joined by “and”; a condition that tells them apart may be missing. Equal entries are not always repeated. Some results are limits rather than exact numbers.

Turning to `CC(=O)c1c(O)c(C)c(O)c(Cc2c(O)c3c(c(C(=O)/C=C/c4ccccc4)c2O)OC(C)(C)C=C3)c1O` [Rottlerin], the “decrease in VEEV TC-83 replication” value in series [1] was 2 log and 3 log. Further, the “decrease in CHIKV replication” value in series [2] is recorded as 3 log. Further, the pEC50 in series [3] is 5.77; in series [4], over 6.00; in series [5], 5.96. Moreover, the “decrease in SINV replication” value in series [6] was 5 log. In addition, the CC50 in series [7] came out at 63000 nM.
